Regarding `*C(=O)OC1CC(*)N(C(=O)OCc2ccccc2)C1` (repeat unit), the glass transition temperature amounted to 78.00 °C.
With `*C(=O)OCCCCCCCCCCCCOC(=O)c1ccc2c(c1)C(=O)N(c1ccc(Oc3ccc(N4C(=O)c5ccc(*)cc5C4=O)cc3)cc1)C2=O` (repeat unit) the figure was 105.00 °C.
Then `*C(=O)OCCCCCCCCCOC(=O)c1ccc(N2C(=O)c3ccc(*)cc3C2=O)cc1` (repeat unit), with 62.00 °C.
With `*C(=O)OCCCCCCCCOC(=O)c1ccc(N2C(=O)c3ccc(*)cc3C2=O)cc1` (repeat unit) the figure was 65.00 °C; with `*C(=O)OCCCCCCCOC(=O)c1ccc(N2C(=O)c3ccc(*)cc3C2=O)cc1` (repeat unit), 77.00 °C; with `*CC(F)(F)C(F)(F)C(F)(F)C(F)(F)COC(=O)O*` (repeat unit), -41.00 °C.
Compound `*CC(F)(F)C(F)(F)C(F)(F)COC(=O)c1cccc(-c2cccc(C(=O)O*)c2)c1` (repeat unit) returned a glass transition temperature of 45.00 °C.
Turning to `*CC(F)(F)C(F)(F)C(F)(F)COC(=O)c1cccc(C(F)(F)C(F)(F)C(F)(F)C(F)(F)C(F)(F)c2cccc(C(=O)O*)c2)c1` (repeat unit), the glass transition temperature stood at 29.00 °C.
Take `*CC(O)C(O)COC(=O)O*` (repeat unit): the glass transition temperature worked out at 39.60 °C.
As for `*CC(O)COc1ccc(C(=O)c2ccc(O*)cc2)cc1` (repeat unit), the glass transition temperature was found to be 130.00 °C.
Then `*CC1CCC(COC(=O)C2CCC(C(=O)O*)CC2)CC1` (repeat unit), with 77.00 °C; and `*CC1CCC(COC(C)OC(=O)c2ccc(C(=O)OC(C)O*)c3ccccc23)CC1` (repeat unit), with 60.00 °C.
For the compound `*CC1CCC(COC(C)OC(=O)c2ccc(C(=O)OC(C)O*)cc2)CC1` (repeat unit), the glass transition temperature is 61.00 °C.
Then `*CCCC(=O)NNC(=O)c1ccc(C(=O)NNC(=O)CCCOc2ccc(O*)c(C)c2)cc1` (repeat unit), with 139.00 °C.
Then `*CCCCCC(=O)NNC(=O)c1ccc(C(=O)NNC(=O)CCCCCOc2ccc(O*)c(C)c2)cc1` (repeat unit), with 126.00 °C; and `*CCCCCCCCCCCCOC(=O)c1ccc(-c2ccc(C(=O)O*)cc2)cc1` (repeat unit), with 50.50 °C; and `*CCCCCCCCCCCOC(=O)c1ccc2cc(C(=O)O*)ccc2c1` (repeat unit), with 43.00 °C.
`*CCCCCCCCCCOC(=O)c1ccc2cc(C(=O)O*)ccc2c1` (repeat unit) gave a glass transition temperature of 50.50 °C.
With `*CCCCCCCCCCOC(=O)c1cccc(C(=O)O*)c1` (repeat unit) the figure was -22.50 °C.
In turn, `*CCCCCCCCCCOc1ccc(/C=C/c2ccc(OCCCCCCCCCCOP(=O)(O*)OCCCCCCCCCCOc3ccc(/N=N/c4ccc(Cl)cc4)cc3)cc2)cc1` (repeat unit) yielded a glass transition temperature of 60.00 °C.
In turn, `*CCCCCCCCCCOc1ccc(/C=C2\CC/C(=C\c3ccc(OCCCCCCCCCCOP(=O)(O*)OCC)c(OC)c3)C2=O)cc1OC` (repeat unit) showed a glass transition temperature of 47.00 °C.
The compound `*CCCCCCCCCOC(=O)c1ccc(C(=O)O*)cc1` (repeat unit) displayed a glass transition temperature of 35.00 °C.
With `*CCCCCCCOC(=O)c1ccc2cc(C(=O)O*)ccc2c1` (repeat unit) the figure was 52.50 °C; with `*CCCCCCOC(=O)OCCCCCCCCCCOC(=O)OCCCCCCOc1ccc(C(=O)c2ccc(O*)cc2)cc1` (repeat unit), -13.00 °C; with `*CCCCCCOC(=O)OCCCCCCCCCCOC(=O)OCCCCCCn1c(=O)c2cc3c(=O)n(*)c(=O)c3cc2c1=O` (repeat unit), -2.00 °C.
Then `*CCCCCCOC(=O)OCCCCCCCCCOC(=O)OCCCCCCOc1ccc(C(=O)c2ccc(O*)cc2)cc1` (repeat unit), with -6.00 °C.
Compound `*CCCCCCOC(=O)OCCCCCCCCOC(=O)OCCCCCCOc1ccc(C(=O)c2ccc(O*)cc2)cc1` (repeat unit) showed a glass transition temperature of -7.70 °C.
With `*CCCCCCOC(=O)OCCCCCCN1C(=O)c2ccc(-c3ccc4c(c3)C(=O)N(*)C4=O)cc2C1=O` (repeat unit) the figure was 71.00 °C; with `*CCCCCCOC(=O)OCCCCCCN1C(=O)c2ccc(C(=O)c3ccc4c(c3)C(=O)N(*)C4=O)cc2C1=O` (repeat unit), 76.00 °C; with `*CCCCCCOC(=O)OCCCCCCOC(=O)OCCCCCCOc1ccc(C(=O)c2ccc(O*)cc2)cc1` (repeat unit), -0.30 °C.
With `*CCCCCCOC(=O)OCCCCCCOC(=O)OCCCCCCn1c(=O)c2cc3c(=O)n(*)c(=O)c3cc2c1=O` (repeat unit) the figure was 17.00 °C.
With `*CCCCCCOC(=O)OCCCOC(=O)OCCCCCCN1C(=O)c2ccc(C(=O)c3ccc4c(c3)C(=O)N(*)C4=O)cc2C1=O` (repeat unit) the figure was 61.00 °C; with `*CCCCCCOC(=O)c1ccc(-c2ccc(C(=O)O*)cc2)cc1` (repeat unit), 51.00 °C.
`*CCCCOC(=O)OCCCCCCOC(=O)OCCCCn1c(=O)c2cc3c(=O)n(*)c(=O)c3cc2c1=O` (repeat unit) gave a glass transition temperature of 37.00 °C.
Then `*CCCOC(=O)OCCCCCCOC(=O)OCCCn1c(=O)c2cc3c(=O)n(*)c(=O)c3cc2c1=O` (repeat unit), with 36.00 °C.
Then `*Nc1c(C)c(C)c(C(=O)c2ccc(NC(=O)c3ccc(C(*)=O)cc3)cc2)c(C)c1C` (repeat unit), with 366.00 °C; and `*OC(=O)OCCCCCCOC(=O)OC1COC2C(*)COC12` (repeat unit), with 27.50 °C.
Then `*OC(=O)c1ccc(SCCCCSc2ccc(C(*)=O)cc2)cc1` (repeat unit), with 62.00 °C.
Turning to `*OC(=O)c1cccc(C(=O)OC2CC3CC(*)CC(C2)O3)c1` (repeat unit), the glass transition temperature worked out at 113.00 °C.
With `*OC(CCl)C(*)CCl` (repeat unit) the figure was 95.00 °C; with `*OC(F)(C(*)(F)F)C(F)(F)F` (repeat unit), -73.00 °C; with `*OC(F)(F)COC(=O)c1cccc(C(=O)OCC(*)(F)F)c1` (repeat unit), 28.00 °C.
With `*OC1C(CO)OC(*)C(NC(C)=O)C1O` (repeat unit) the figure was 154.60 °C; with `*OC1C(COC(C)=O)OC(*)C(OC(C)=O)C1O` (repeat unit), 202.00 °C; with `*OC1CCC(OC(=O)OCCCCCCOC(*)=O)CC1` (repeat unit), 10.00 °C.
For the compound `*ON(C(F)(F)F)C(F)(C(*)(F)F)C(F)(F)F` (repeat unit), the glass transition temperature is -9.00 °C.
In the case of `*ON(C(F)(F)F)C(F)(F)C(*)(F)F` (repeat unit), the glass transition temperature was -46.00 °C.
`*OP(=O)(Oc1ccccc1)OC(CCl)COc1ccc(S(=O)(=O)c2ccc(OCC(*)CCl)cc2)cc1` (repeat unit): the glass transition temperature stood at 48.00 °C.
Compound `*O[Si](C)(C)O[Si](C)(C)O[Si](C)(C)O[Si](C)(C)O[Si](C)(C)OC1=C(*)c2cccc3cccc1c23` (repeat unit) returned a glass transition temperature of -54.00 °C.
With `*Oc1cc(CCC)cc(OC(=O)c2cccc(C(*)=O)c2)c1` (repeat unit) the figure was 129.00 °C.
`*Oc1cc(CCCCCCCCCCC)cc(OC(=O)c2cccc(C(*)=O)c2)c1` (repeat unit) displayed a glass transition temperature of 34.50 °C.
With `*Oc1cc(CCCCCCCCCCCCC)cc(OC(=O)c2cccc(C(*)=O)c2)c1` (repeat unit) the figure was 25.50 °C; with `*Oc1ccc(-c2ccc(OC(=O)c3ccc(Oc4ccc(C5(c6ccc(Oc7ccc(C(*)=O)cc7)cc6)CCC(C(C)(C)C)CC5)cc4)cc3)cc2C)c(C)c1` (repeat unit), 163.00 °C; with `*Oc1ccc(-c2ccc(Oc3ccc(C(=O)c4ccc(C(=O)c5ccc(*)c(C(F)(F)F)c5)cc4)cc3C(F)(F)F)cc2)cc1` (repeat unit), 187.00 °C.
In turn, `*Oc1ccc(Cc2ccc(OC(=O)OCC3CCC(COC(*)=O)CC3)cc2)cc1` (repeat unit) returned a glass transition temperature of 56.90 °C.
Then `*Oc1ccc(OC(=O)c2ccc(Sc3cccc(OC(=O)c4ccc(C(=O)Oc5cccc(Sc6ccc(C(*)=O)cc6)c5)cc4)c3)cc2)cc1C` (repeat unit), with 135.00 °C; and `*Oc1cccc(C(=O)OCC(F)(F)C(F)(F)C(F)(F)COC(=O)c2cccc(*)c2)c1` (repeat unit), with 20.00 °C.
Then `*c1ccc(C(=O)OCCCCCCCCCCOc2ccc(/C=C3\CC/C(=C\c4ccc(OCCCCCCCCCCOC(=O)c5ccc(-c6nnc(*)o6)cc5)cc4)C3=O)cc2)cc1` (repeat unit), with 58.00 °C; and `*c1ccc(C(=O)OCCCCCCCCOc2ccc(/C=C3\CCC/C(=C\c4ccc(OCCCCCCCCOC(=O)c5ccc(-c6nnc(*)o6)cc5)cc4)C3=O)cc2)cc1` (repeat unit), with 59.00 °C.
`*c1ccc(C(=O)OCCCCCCCCOc2ccc(/C=C3\CCCC/C(=C\c4ccc(OCCCCCCCCOC(=O)c5ccc(-c6nnc(*)o6)cc5)cc4)C3=O)cc2)cc1` (repeat unit) returned a glass transition temperature of 98.00 °C.
Then `*c1ccc(Oc2ccc(C(=O)c3ccc(Oc4ccc(-c5c6c(c(*)c7ccccc57)C(=O)N(c5ccc(F)cc5)C6=O)cc4)cc3)cc2)cc1` (repeat unit), with 290.00 °C; and `*c1ccc(Oc2ccc(C(=O)c3ccc(Oc4ccc(-c5c6c(c(*)c7ccccc57)C(=O)N(c5ccccc5F)C6=O)cc4)cc3)cc2)cc1` (repeat unit), with 282.00 °C.
With `*c1ccc(Oc2ccc(C(=O)c3ccc(Oc4ccc(-c5cc(*)n(-c6ccccc6)n5)cc4)cc3)cc2)cc1` (repeat unit) the figure was 205.00 °C; with `*c1ccc(Oc2ccc(C(=O)c3ccc(Oc4ccc(-c5nc(-c6ccccc6)[nH]c5*)cc4)cc3)cc2)cc1` (repeat unit), 259.00 °C.

The values are drawn from the PolyMetriX glass transition set.
